Legend:
[1] = system: apical acid secretion, human ileum monolayer culture; experiment: Sustained inhibition of apical acid secretion in human organoid monolayer cell cultures (ileum); assay type: cell-based; settings: 1 μM apical dosing day 6, apical media pH day 8, inhibition of apical acid secretion vs DMSO
Method: (§1) Basal media (BM) consisted of advanced DMEM/F12 containing 10 mM HEPES (Invitrogen, 15630-080), 1:100 Glutamax (Invitrogen, 35050-061), and 1:100 penicillin/streptomycin (Invitrogen, 15140-122). […] Growth factors used included 50 ng per mL mouse EGF (Peprotech, 315-09), 100 ng per mL mouse noggin (Peprotech, 250-38), 500 ng per mL human R-spondin 1 (R&D, 4645-RS), 100 ng per mL mouse Wnt-3a (R&D, 1324-WN), 20 μM Y-27632 (Tocris, 1254), 10 mM nicotinamide (Sigma, N0636), 500 nM A83-01 (Tocris, 2939), 10 μM SB202190 (Tocris, 1264). Transwells were 0.4 μm pore polyester membrane 24-well Transwell inserts (Corning). Cultures were incubated at 37° C. in 5% CO2.
Human ileum organoids were cultured in WENRNAS (Wnt, EGF, noggin, R-spondin1, Nicotinamide, A83-01, SB202190) and typically grown for 7-12 days before being used to plate monolayer cultures. On day 0, organoid cultures embedded in Matrigel were treated with TrypLE Express to break organoids into small pieces and/or single cells. […]
Each human ileum monolayer culture well was washed twice with fresh SBM on the apical side on day 6 before compound dosing. […] On day 8, apical media pH was measured by pH meter, to determine the ability of example compounds to produce sustained inhibition of NHE3 activity in a human monolayer culture system by preventing proton secretion into the apical compartment.

[2] = system: apical acid secretion, human duodenum monolayer culture; experiment: Sustained inhibition of apical acid secretion in human organoid monolayer cell cultures (duodenum); assay type: cell-based; settings: 1 μM apical dosing, inhibition of apical acid secretion vs DMSO
[3] = system: tight junction permeability, human duodenum monolayer culture; experiment: Increased trans-epithelial resistance (TEER) in human organoid monolayer cell cultures; assay type: cell-based; settings: 1 μM apical, baseline corrected
Method: as §1
Human duodenum organoids were cultured in WENRNAS (Wnt, EGF, noggin, R-spondin1, Nicotinamide, A83-01, SB202190) and typically grown for 7-12 days before being used to plate monolayer cultures. […]
Each human duodenum monolayer culture well was washed twice with fresh SBM on the apical side on day 6 or day 7 before dosing. […] Transepithelial electrical resistance (TEER) was used as a quantitative technique to measure of tight junction permeability. TEER values were recorded (MERS00002, Millipore) before dosing and 30 mins and 1 hr after dosing for all wells. […] Baseline corrected TEER for each example compound was compared to the average of the DMSO wells and expressed as a percent TEER of vehicle control.

Plasma PK = assay type: in vivo, Sprague-Dawley rats; settings: Sprague-Dawley, rat plasma, oral gavage, nominal dose 15 mg/kg, mean of n=3
Method: Sprague-Dawley rats (n=3) were dosed with test compound by oral gavage. Blood samples were collected at 0.5, 1, 2 and 4 h by retro-orbital bleeds and processed to plasma using K2EDTA as an anticoagulant. Plasma samples were treated with acetonitrile containing an internal standard and precipitated proteins were removed by centrifugation. Supernatants were analyzed by LC-MS/MS and compound concentrations were determined by interpolation from a standard calibration curve prepared in plasma. Accurate recovery of quality control samples was confirmed to accept each analytical run. Table 5 illustrates data from the pharmacokinetic profiling of an example compound, for which pharmacokinetic parameters were determined.

SMILES: CN(C)[C@H]1Cc2c(Cl)cc(Cl)cc2[C@@H]1Oc1ccc(S(=O)(=O)NCCOCCOCCNC(=O)NCCCCNC(=O)NCCOCCOCCNS(=O)(=O)c2ccc(O[C@H]3c4cc(Cl)cc(Cl)c4C[C@@H]3N(C)C)cc2)cc1 [Example 1, (S,S)—N,N′-(10,17-dioxo-3,6,21,24-tetraoxa-9,11,16,18-tetraazahexacosane-1,26-diyl)bis(4-((1S,2S)-4,6-dichloro-2-(dimethylamino)-2,3-dihydro-1H-inden-1-yloxy)benzenesulfonamide)]
- % inhibition (ileum) [1]: B (50-70%)
- % inhibition (duodenum) [2]: C (>70%)
- TEER at 30 minutes (% of Vehicle) ([3]; 30 mins after dosing): B (100-130%)
- TEER at 60 minutes (% of Vehicle) ([3]; 1 hr after dosing): B (100-130%)
- Cmax (Plasma PK; LLOQ 0.2 ng/mL): 1 ng/mL
- AUC (Plasma PK; samples 0.5-4 h): < 3 ng·h/mL

Source: patent US10376481B2, “Compounds and methods for inhibiting NHE-mediated antiport in the treatment of disorders associated with fluid retention or salt overload and gastrointestinal tract disorders” (ARDELYX, INC, priority 2012, dated 2019)
